The source of these data is patent US6706699B2, “Quinolines and uses thereof” (Ariad Pharmaceuticals, Inc., priority 2001, dated 2004).

The structures appear in SMILES notation.

This series can be described thus: Hydroxyapatite assay (hydroxyapatite adsorption chromatography, bone-targeting potential). To be noted: corrected retention K=(retention time−void time)/void on TSK-Gel HA 1000 column; linear gradient 10 mM to 500 mM sodium phosphate, 0.15 N NaCl, pH 6.8. Type of series: physicochemical. How it is done:
Hydroxyapatite is the principal mineral component of bone. Hydroxyapatite adsorption chromatography is used as an assay to evaluate the bone-targeting potential of both individual bone-targeting moieties (“monomers”) and of pharmaceuticals incorporating bone-targeting groups.
Method: The rentention time of a test compound is measured using a linear gradient from 10 mM sodium phosphate, 0.15 N NaCl, pH=6.8 to 500 mM sodium phosphate, 0.15 N NaCl, […] on a TSK-Gel HA 1000 high pressure liquid chromatography column (7.5 mm×75 mm). […] This K value is corrected using two reference compounds to correct from inter-column and inter-system variation to obtain a K′ value.
Reference Compounds: K′ values were determined for known bone targeted compounds, the bisphosphonate, alendronate and tetracycline.

Regarding `NCCCC(O)(P(=O)(O)O)P(=O)(O)O` [Alendronate, alendronate], the “K′ value” is given as 3.7.
